The record followed here is publication PMC8209656 (The Journal of endocrinology, 2010).

Holding throughout (assay): ethoxyresorufin-O-deethylase fluorescence, recombinant membranes
Common to all, as to format: biochemical
Common to all, as to conditions: 30 °C; human CPR co-expressed

The target in one experiment is T1, CYP1B1 (Danio rerio, UniProt Q1JQ70).
T1 sequence (Q1JQ70 1-526): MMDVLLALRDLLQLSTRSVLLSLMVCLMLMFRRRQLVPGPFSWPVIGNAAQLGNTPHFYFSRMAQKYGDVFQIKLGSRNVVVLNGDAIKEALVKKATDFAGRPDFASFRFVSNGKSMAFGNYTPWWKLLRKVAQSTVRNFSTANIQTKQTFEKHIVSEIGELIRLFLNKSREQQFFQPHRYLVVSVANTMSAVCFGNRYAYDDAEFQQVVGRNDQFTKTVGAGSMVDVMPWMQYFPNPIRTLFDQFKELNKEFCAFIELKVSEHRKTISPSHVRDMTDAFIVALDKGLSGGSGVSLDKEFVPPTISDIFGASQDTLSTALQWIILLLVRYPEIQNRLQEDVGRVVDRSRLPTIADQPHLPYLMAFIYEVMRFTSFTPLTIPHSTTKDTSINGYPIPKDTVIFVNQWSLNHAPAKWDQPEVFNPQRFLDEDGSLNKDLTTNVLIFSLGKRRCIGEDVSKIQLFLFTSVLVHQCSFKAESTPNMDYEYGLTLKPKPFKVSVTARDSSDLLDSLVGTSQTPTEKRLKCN

The next experiment deals with T2, CYP1C2 (Danio rerio, UniProt A0AC58HLV5).
T2 sequence (A0AC58HLV5 1-514): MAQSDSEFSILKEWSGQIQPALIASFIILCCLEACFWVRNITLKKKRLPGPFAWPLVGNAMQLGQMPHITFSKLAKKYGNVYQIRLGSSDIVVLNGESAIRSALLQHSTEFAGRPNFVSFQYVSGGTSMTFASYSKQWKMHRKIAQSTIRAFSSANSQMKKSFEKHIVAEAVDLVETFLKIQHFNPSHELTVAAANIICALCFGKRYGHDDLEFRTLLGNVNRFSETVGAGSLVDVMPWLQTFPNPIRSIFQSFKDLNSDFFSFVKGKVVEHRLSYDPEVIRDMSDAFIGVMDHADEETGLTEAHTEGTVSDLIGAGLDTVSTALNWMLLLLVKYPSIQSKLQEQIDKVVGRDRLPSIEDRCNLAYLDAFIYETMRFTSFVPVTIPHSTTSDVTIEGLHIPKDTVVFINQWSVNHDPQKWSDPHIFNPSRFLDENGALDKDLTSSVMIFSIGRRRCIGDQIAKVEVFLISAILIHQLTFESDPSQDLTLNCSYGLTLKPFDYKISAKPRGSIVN

Another experiment addresses T3, CYP1C1 (Danio rerio, UniProt A0A8M1N631).
T3 sequence (A0A8M1N631 13-523): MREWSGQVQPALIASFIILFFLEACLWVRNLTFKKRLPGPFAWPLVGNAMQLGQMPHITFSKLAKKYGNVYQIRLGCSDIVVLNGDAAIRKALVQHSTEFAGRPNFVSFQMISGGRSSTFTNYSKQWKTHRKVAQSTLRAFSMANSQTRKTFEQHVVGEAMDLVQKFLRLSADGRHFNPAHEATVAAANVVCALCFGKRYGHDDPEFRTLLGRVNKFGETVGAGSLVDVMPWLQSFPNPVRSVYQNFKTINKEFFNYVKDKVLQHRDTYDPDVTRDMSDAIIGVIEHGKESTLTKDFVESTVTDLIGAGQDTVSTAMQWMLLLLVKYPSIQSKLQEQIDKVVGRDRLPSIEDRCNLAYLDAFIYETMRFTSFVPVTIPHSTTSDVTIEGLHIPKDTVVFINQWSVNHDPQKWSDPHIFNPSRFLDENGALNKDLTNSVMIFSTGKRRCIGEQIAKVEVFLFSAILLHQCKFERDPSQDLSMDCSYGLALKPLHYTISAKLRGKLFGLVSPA

`CCOc1ccc2nc3ccc(=O)cc-3oc2c1` [7-ethoxyresorufin]: the “ethoxyresorufin-O-deethylase fluorescence, recombinant membranes” value on CYP1B1 is “All CYP1s showed catalytic activity for 7-ER and BFC except for CYP1D1 and CYP3A65”; at CYP1C2 it was “All CYP1s showed catalytic activity for 7-ER and BFC except for CYP1D1 and CYP3A65”; at CYP1C1 it was “All CYP1s showed catalytic activity for 7-ER and BFC except for CYP1D1 and CYP3A65”.
